Structures are written as SMILES. “And” between values parts separate entries of the source, which are not always exact repeats. Equal values may be shown once. Read-outs that look alike come from different tables or passages of the source.

Results on five compounds are retold here after US8151795B2, “Method of demand valve oxygen therapy for rapid abort of cluster headache” (Linde AG, priority 2008, dated 2012).

Data set [1] has as its system cluster headache patients. As to conditions: cited from earlier work.
In data set [2] the test system is cluster headache sufferers.
Description: It is critical that the cluster headache sufferer fully inhale and exhale as completely as possible during the first three phases of the method of the present invention, in order to insure more complete ventilation of the lungs during hyperventilation and the expelling of carbon dioxide, a vasodilative agent, as rapidly as possible. The four phases of the invented demand valve method are herein described in more detail.
Taking three to four very deep breaths of oxygen from the demand valve, exhaling and inhaling as completely as possible with each breath, starts the process of clearing the residual Nitrogen from the lungs and also starts the shift into hyperoxia, which can be defined as having more oxygen in the blood than normal.
In Phase 3, slow hyperventilation, which has a recommended respiration rate of 30 breaths per minute, the purpose is to maintain the benefits of hyperventilation, respiratory alkalosis, hypocapnia, and hyperoxia, but at a more comfortable respiration rate. […] The cluster headache sufferer should maintain this respiration rate until the cluster headache pain has clearly subsided.
Data set [3] relates to cerebral blood flow. As to conditions: cited from earlier work.
Data set [4] has as its system cluster headache patients. To be noted: cited from earlier work. The source holds these as a separate data set.
Data set [5] relates to cluster headache patients. As to conditions: cited from earlier work; for headache response: Rozen 2004; for subjects in whom oxygen is effective: standard of care continuous flow.
Data set [6] deals with Extracerebral Flow Index. As to conditions: cluster headache patients during headache interval, during 100% oxygen inhalation; cited from earlier work.
The test system of data set [7] is normal human subjects. To be noted: cited from earlier work.
Data set [8] relates to cluster headache patients. To be noted: nasal spray at doses of 5 and 10 mg; cited from earlier work.
The test system of data set [9] is cerebral blood flow. As to conditions: 5% carbon dioxide; young men; cited from earlier work.
Data set [10] concerns pulmonary ventilation rate. As to conditions: increase of about 0.25% alveolar carbon dioxide; cited from earlier work.
The subject of data set [11] is patients with episodic and chronic cluster headache. As to conditions: episodic and chronic disease; cited from earlier work.
[12] abbreviates: after 10 minutes of oxygen inhalation.

As to `CNS(=O)(=O)Cc1ccc2[nH]cc(CCN(C)C)c2c1` [sumatriptan], the “patients in whom effective (pain free in 20 minutes)” value in data set [1] (6 mg injected subcutaneously, double blind placebo controlled trials) is given as “about 75%”. Further, the “lower effectiveness in chronic than in episodic cluster” value in [1] (sumatriptan injection (Rozen 2002)) was 8%.

As for `O=O` [oxygen], the “re-attacks (attack 15 to 45 minutes after successful abort), incidence per aborts” value in data set [2] (Kip pain level high (7-8) and abort times less than 15 min) is recorded as 1 out of 4. Moreover, the “success rate of aborting cluster headache” value in [2] (demand valve method, chronic sufferers over 50, attacks of Kip 8 pain level or below) was 95% and > 95%. Also, the “reduction of time for complete abort vs non-rebreathing mask with 15 l/min continuous flow oxygen” value in [2] (demand valve method, same pain level) is reported as around 50%. The compound further showed a time to abort in [2] (demand valve method, the one Kip 9 cluster headache recorded) of 25 min. Moreover, the “adverse effects or symptoms” value in data set [2] (many months of continuous use, other than dry mouth) is “no adverse effects or symptoms encountered”. Further, the “re-attacks after extending oxygen use after abort” value in data set [2] (total of 20 minutes of continuous oxygen inhalation) is recorded as “largely or totally eliminated”. The “decrease in CBF” value in [3] (Floyd 2003, transition from air to 100% O2 at 1.0 ATA, MRI) is on record as 33%. For the same compound, in [3] (Kawamura 1991, after 100% oxygen for five minutes, five cluster headache patients), the “CBF values for temporal cortex and basal ganglia” value was “significantly decreased below normal values”. The “decrease of cerebral blood flow” value in data set [3] (Kety, healthy young male volunteers) is “approximately 13%”. In [3] (Sakai 1979, normal volunteers of both sexes), the “reduction of Fg (CBF in gray brain matter)” value is 9.4+/−5.4%. The “average decrease of superficial temporal artery pulse amplitude” value in data set [4] (setting [12]) is recorded as 30%. The “patients with decreased pulse amplitude of superficial temporal artery, symptomatic side” value in data set [4] (setting [12]) was 15 of the 16. The “headache subsiding almost completely” value in [4] (after 15 minutes, 16 patients studied) is 12 patients. For the same compound, the “patients reporting at least some relief” value in data set [4] (after breathing 100% oxygen for 10 minutes) is given as 15 of 16. Moreover, in data set [5] (7 to 12 l/min continuous flow, non-rebreathing mask), the “time to being effective” value is at most 5 min. Also, the “adverse effects of oxygen for cluster headache” value in data set [5] (Ekbom 2002, Matharu 2003) was “no established adverse effects”. Besides, the “patients obtaining significant relief from cluster pain” value in data set [5] (Kudrow 1981, cessation of pain within 15 minutes for at least 7 of 10 attacks) is listed as 75%. In addition, the least benefit in data set [5] (Kudrow 1981, chronic patients over 49 years of age) is given as 57%. Moreover, in data set [5] (Kudrow 1981, episodic patients under 50 years of age), the greatest benefit is 92.9%. Also, the results for the headache response entry in data set [5] (7-10 l/min flow rate) and in [5] (higher flow rate (15 l/min)) were “no change in headache intensity” and “complete or near-complete headache alleviation”, respectively. Further, the patients having success in [5] (chronic patients, standard of care oxygen therapy) is 68.4%. Further, the patients responding favorably in data set [5] (episodic patients, standard of care oxygen therapy) is given as 78%. Besides, the “subjects in whom oxygen is effective” value was around 70% in data set [5] (non-rebreathing mask) and 70% in data set [5] (non-rebreathing mask, listed as 100% oxygen). Besides, the “patients noting oxygen simply delays the attack rather than aborting it” value in data set [5] (standard of care method (Matharu 2003)) is given as “up to 25%”. In addition, the EFI values in data set [6] is recorded as 7+/−2%. Besides, the toxic effects entry in data set [7] (Kafer 1971, within 3 hours of exposure) is “no toxic effects”. Besides, the “duration for which exposure is safe” value in [7] (Sackner 1975, atmospheric pressure) is reported as “less than 6 hours”. The “earliest occurrence of substernal stress after start of oxygen breathing” value in [7] (Sackner 1975) was 4 h.

On to `CN(C)CCc1c[nH]c2ccc(C[C@H]3COC(=O)N3)cc12` [Zolmitriptan], for which the “acute treatment of cluster headache” value in data set [8] was “effective and tolerable”.

As to `O=C=O` [carbon dioxide], in data set [9], the “increase in CBF” value is given as 59%. Moreover, the “increase in pulmonary ventilation rate” value in [10] was 100%.

For the compound `O=O` [hyperbaric oxygen], in [11], the prophylactic effect result is “no significant prophylactic effect”.
